Data reported in patent publication US10183021B2, “sGC stimulators” (Ironwood Pharmaceuticals, Inc., priority 2013, dated 2019).

Target: soluble guanylate cyclase (sGC) (Homo sapiens (Human), UniProt Q02108+Q02153)
Assay: sGC-HEK-cGMP assay with SNP incubation, LC/MS detection (Example 2A)
Format: cell-based
Conditions: HEK293 cells, 10 μM SNP, LC/MS detection; for Emax: 100% = BAY 41-2272 at 10 μM, read-out: HEK assay Emax - unconstrained (%); for EC50: top of curve not fitted to 100%, read-out: HEK assay EC50 - unconstrained
In short: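 HEK293 cells with endogenous sGC were pretreated 15 min at 37 °C with 0.5 mM IBMX, then exposed 10 min at 37 °C to compound (added from 0.0001–30 μM solutions) plus SNP (from 10 μM solution). After 0.1 M HCl lysis, cGMP was quantified by LC/MS against a standard curve.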

Sequence of soluble guanylate cyclase (sGC) (Q02153 whole entry): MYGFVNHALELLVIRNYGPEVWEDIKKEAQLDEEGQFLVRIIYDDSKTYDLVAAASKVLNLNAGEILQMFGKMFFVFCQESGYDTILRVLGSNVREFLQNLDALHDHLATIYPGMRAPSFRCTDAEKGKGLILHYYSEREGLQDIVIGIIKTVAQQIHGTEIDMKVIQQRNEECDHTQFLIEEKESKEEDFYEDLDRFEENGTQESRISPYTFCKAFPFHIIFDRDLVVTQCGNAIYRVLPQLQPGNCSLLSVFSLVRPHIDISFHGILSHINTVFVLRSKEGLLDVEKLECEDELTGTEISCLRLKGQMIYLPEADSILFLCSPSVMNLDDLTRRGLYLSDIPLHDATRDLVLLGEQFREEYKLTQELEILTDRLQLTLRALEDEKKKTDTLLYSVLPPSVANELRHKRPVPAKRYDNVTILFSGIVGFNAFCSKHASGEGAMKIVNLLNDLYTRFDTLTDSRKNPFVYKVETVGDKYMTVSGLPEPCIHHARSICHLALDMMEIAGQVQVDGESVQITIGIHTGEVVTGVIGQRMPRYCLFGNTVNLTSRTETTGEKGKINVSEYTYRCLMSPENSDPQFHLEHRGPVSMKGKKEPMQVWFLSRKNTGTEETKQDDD
Sequence of soluble guanylate cyclase (sGC) (Q02108 whole entry): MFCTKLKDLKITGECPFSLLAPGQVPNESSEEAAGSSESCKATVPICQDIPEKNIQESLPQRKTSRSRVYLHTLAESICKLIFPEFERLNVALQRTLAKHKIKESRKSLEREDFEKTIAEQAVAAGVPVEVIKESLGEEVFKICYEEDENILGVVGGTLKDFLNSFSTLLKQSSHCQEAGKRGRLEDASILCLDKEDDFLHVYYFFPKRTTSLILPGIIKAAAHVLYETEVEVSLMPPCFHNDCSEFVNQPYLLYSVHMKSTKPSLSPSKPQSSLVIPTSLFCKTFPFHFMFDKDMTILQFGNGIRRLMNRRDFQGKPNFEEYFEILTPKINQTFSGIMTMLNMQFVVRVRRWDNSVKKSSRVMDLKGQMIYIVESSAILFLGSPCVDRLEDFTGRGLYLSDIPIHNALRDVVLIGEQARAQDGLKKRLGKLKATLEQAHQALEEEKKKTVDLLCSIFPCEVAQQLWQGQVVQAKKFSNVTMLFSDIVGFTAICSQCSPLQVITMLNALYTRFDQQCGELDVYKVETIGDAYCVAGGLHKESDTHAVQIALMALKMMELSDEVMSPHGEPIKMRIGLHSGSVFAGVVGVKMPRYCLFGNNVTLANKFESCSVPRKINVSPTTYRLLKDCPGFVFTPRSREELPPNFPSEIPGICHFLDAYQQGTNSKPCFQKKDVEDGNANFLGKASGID

Row | Emax [%] | EC50 [nM] | SMILES
1 | 60 to 80 | 100 to 500 | COC1CCN(c2nc(-c3cc(-c4ccon4)n(Cc4ccccc4F)n3)ncc2F)C1 (stereo not drawn) [Compound I-17]
2 | 40 to 60 | 500 to 1000 | COC(=O)C1CCCN1c1nc(-c2cc(-c3ccon3)n(Cc3ccccc3F)n2)ncc1F (stereo not drawn) [Compound I-34]
3 | 80 to 100 | 1 to 100 | CCC(C)[C@H](C(=O)O)N(C)c1nc(-c2cc(-c3ccon3)n(Cc3ccccc3F)n2)ncc1F (stereo partly drawn) [Compound I-247]
4 | 80 to 100 | 1 to 100 | O=C(O)c1ccccc1C1CCN(c2nc(-c3cc(-c4ccon4)n(Cc4ccccc4F)n3)ncc2F)CC1 [Compound I-254]
5 | 60 to 80 | 5000 to 10000 | O=C(O)[C@H](CO)Nc1nc(-c2cc(-c3ccon3)n(Cc3ccccc3F)n2)ncc1F [Compound I-68]
6 | 40 to 60 | 1 to 100 | CS(=O)(=O)N1CCN(c2nc(-c3cc(-c4ccon4)n(Cc4ccccc4F)n3)ncc2F)CC1 [Compound I-125]
7 | 60 to 80 | 1000 to 5000 | O=C(O)[C@@H]1CC(F)(F)CN1c1nc(-c2cc(-c3ccon3)n(Cc3ccccc3F)n2)ncc1F [Compound I-301]
8 | 80 to 100 | 100 to 500 | O=C(O)[C@H]1CCC[C@H]1Nc1nc(-c2cc(-c3ccon3)n(Cc3ccccc3F)n2)ncc1F [Compound I-156]
9 | 60 to 80 | 1 to 100 | CCC(CC)(CN(C)c1nc(-c2cc(-c3ccon3)n(Cc3ccccc3F)n2)ncc1F)C(=O)O [Compound I-252]
10 | 80 to 100 | 500 to 1000 | CN(c1nc(-c2cc(-c3ccon3)n(Cc3ccccc3F)n2)ncc1F)C(CC(F)(F)F)C(=O)O (stereo not drawn) [Compound I-244]
11 | 40 to 60 | 100 to 500 | O=C(O)CN1CCCN1c1nc(-c2cc(-c3ccon3)n(Cc3ccccc3F)n2)ncc1F [Compound I-216]
12 | 60 to 80 | 100 to 500 | CN(c1ccccc1C(=O)O)c1nc(-c2cc(-c3ccon3)n(Cc3ccccc3F)n2)ncc1F [Compound I-153]
13 | 60 to 80 | 500 to 1000 | O=C(O)[C@H](Nc1nc(-c2cc(-c3ccon3)n(Cc3ccccc3F)n2)ncc1F)C1CC1 [Compound I-240]
14 | 60 to 80 | 500 to 1000 | O=C(O)CCNc1nc(-c2cc(-c3ccon3)n(Cc3ccccc3F)n2)ncc1F [Compound I-174]
15 | 60 to 80 | 100 to 500 | CC(C)(C)[C@H](CC(=O)O)Nc1nc(-c2cc(-c3ccon3)n(Cc3ccccc3F)n2)ncc1F [Compound I-251]
16 | 80 to 100 | 1000 to 5000 | COCCC(Nc1nc(-c2cc(-c3ccon3)n(Cc3ccccc3F)n2)ncc1F)C(=O)O (stereo not drawn) [Compound I-232]
17 | 100 to 120 | 1 to 100 | O=C(NS(=O)(=O)N1CCN(c2nc(-c3cc(-c4ccon4)n(Cc4ccccc4F)n3)ncc2F)CC1)C1CC1 [Compound I-285]
18 | 60 to 80 | 100 to 500 | CN(CCC(=O)O)c1nc(-c2cc(-c3ccon3)n(Cc3ccccc3F)n2)ncc1F [Compound I-169]
19 | 80 to 100 | 500 to 1000 | Fc1ccccc1Cn1nc(-c2ncc(F)c(N3CC(F)(F)C3)n2)cc1-c1ccon1 [Compound I-61]
20 | 80 to 100 | 500 to 1000 | O=C(NS(=O)(=O)C1CC1)C1CCCCN1c1nc(-c2cc(-c3ccon3)n(Cc3ccccc3F)n2)ncc1F (stereo not drawn) [Compound I-144]
21 | 60 to 80 | 1000 to 5000 | C[C@H](C[C@H](Nc1nc(-c2cc(-c3ccon3)n(Cc3ccccc3F)n2)ncc1F)C(=O)O)C(F)(F)F [Compound I-224]
22 | 40 to 60 | 5000 to 10000 | COc1cnc(-c2cc(-c3ccon3)n(Cc3ccccc3F)n2)nc1N1CCOCC1 [Compound I-73]
23 | 80 to 100 | 100 to 500 | Oc1ccccc1CNc1nc(-c2cc(-c3ccon3)n(Cc3ccccc3F)n2)ncc1F [Compound I-288]
24 | 80 to 100 | 1 to 100 | O=C(O)[C@H](Nc1nc(-c2cc(-c3ccon3)n(Cc3ccccc3F)n2)ncc1F)C1CCCCC1 [Compound I-243, (R)-2-cyclohexyl-2-((5-fluoro-2-(1-(2-fluorobenzyl)-5-(isoxazol-3-yl)-1H-pyrazol-3-yl)pyrimidin-4-yl)amino)acetic acid]

Row | Emax [%] | EC50 [nM] | SMILES
25 | 100 to 120 | 500 to 1000 | CC(C)[C@@H](CC(=O)O)Nc1nc(-c2cc(-c3ccon3)n(Cc3ccccc3F)n2)ncc1F [Compound I-181]
26 | 60 to 80 | 500 to 1000 | CC(C)(C)[C@H](Nc1nc(-c2cc(-c3ccon3)n(Cc3ccccc3F)n2)ncc1F)C(=O)O [Compound I-151]
27 | 60 to 80 | 1000 to 5000 | O=C(O)C1(Nc2nc(-c3cc(-c4ccon4)n(Cc4ccccc4F)n3)ncc2F)CCC1 [Compound I-94]
28 | 100 to 120 | 100 to 500 | CN(c1nc(-c2cc(-c3ccon3)n(Cc3ccccc3F)n2)ncc1F)[C@@H]1CCCC[C@H]1C(=O)O [Compound I-242]
29 | 60 to 80 | 100 to 500 | OC1CCN(c2nc(-c3cc(-c4ccon4)n(Cc4ccccc4F)n3)ncc2F)C1 (stereo not drawn) [Compound I-20]
30 | 0 to 10 | > 10000 | CN(CC1(C(=O)O)CCCC1)c1nc(-c2cc(-c3ccon3)n(Cc3ccccc3F)n2)ncc1F [Compound I-228]
31 | 20 to 40 | > 10000 | CC(C)(C)OC(=O)N1CCC(Nc2nc(-c3cc(-c4ccon4)n(Cc4ccccc4F)n3)ncc2F)(C(=O)O)CC1 [Compound I-110]
32 | 60 to 80 | 5000 to 10000 | Fc1ccccc1Cn1nc(-c2ncc(F)c(NC3CNC3)n2)cc1-c1ccon1 [Compound I-38]
33 | 60 to 80 | 500 to 1000 | O=C(O)CN(CC(F)(F)F)c1nc(-c2cc(-c3ccon3)n(Cc3ccccc3F)n2)ncc1F [Compound I-273]
34 | 60 to 80 | 100 to 500 | O=C(O)C(Nc1nc(-c2cc(-c3ccon3)n(Cc3ccccc3F)n2)ncc1F)C1CCCCC1 (stereo not drawn) [Compound I-233]
35 | 80 to 100 | 1 to 100 | CC(C)C[C@@H](Nc1nc(-c2cc(-c3ccon3)n(Cc3ccccc3F)n2)ncc1F)C(=O)O [Compound I-103]
36 | 20 to 40 | 1000 to 5000 | O=C(O)[C@@H](CO)Nc1nc(-c2cc(-c3ccon3)n(Cc3ccccc3F)n2)ncc1F [Compound I-112]
37 | 60 to 80 | 100 to 500 | CC(C)(C)OC(=O)N1CCCN1c1nc(-c2cc(-c3ccon3)n(Cc3ccccc3F)n2)ncc1F [Compound I-183]
38 | 80 to 100 | – | CNc1nc(-c2cc(-c3ccon3)n(Cc3ccccc3F)n2)ncc1F [Compound I-196]
39 | 80 to 100 | 100 to 500 | CC(C)(C)OC(=O)NS(=O)(=O)N1CCN(c2nc(-c3cc(-c4ccon4)n(Cc4ccccc4F)n3)ncc2F)CC1 [Compound I-139]
40 | 60 to 80 | 1000 to 5000 | O=C(O)C(Nc1nc(-c2cc(-c3ccon3)n(Cc3ccccc3F)n2)ncc1F)C1COC1 (stereo not drawn) [Compound I-102]
41 | 60 to 80 | 100 to 500 | CC(CN(C)c1nc(-c2cc(-c3ccon3)n(Cc3ccccc3F)n2)ncc1F)C(=O)O (stereo not drawn) [Compound I-170]
42 | 80 to 100 | 100 to 500 | O=C(O)C1(CNc2nc(-c3cc(-c4ccon4)n(Cc4ccccc4F)n3)ncc2F)CCOCC1 [Compound I-194]
43 | 60 to 80 | 500 to 1000 | CC(C)(C)OC(=O)N1CCCC(Nc2nc(-c3cc(-c4ccon4)n(Cc4ccccc4F)n3)ncc2F)C1 (stereo not drawn) [Compound I-27]
44 | 60 to 80 | 100 to 500 | N#CCNc1nc(-c2cc(-c3ccon3)n(Cc3ccccc3F)n2)ncc1F [Compound I-141]
45 | 80 to 100 | 100 to 500 | Fc1ccccc1Cn1nc(-c2ncc(F)c(N3CCCC(F)C3)n2)cc1-c1ccon1 (stereo not drawn) [Compound I-56]
46 | 60 to 80 | 100 to 500 | O=C(O)C1CCCCCN1c1nc(-c2cc(-c3ccon3)n(Cc3ccccc3F)n2)ncc1F (stereo not drawn) [Compound I-75]
47 | 80 to 100 | 100 to 500 | CS(=O)(=O)c1ccc(CNc2nc(-c3cc(-c4ccon4)n(Cc4ccccc4F)n3)ncc2F)cc1 [Compound I-287]
48 | 80 to 100 | 500 to 1000 | CC(C)CN(CC(=O)O)c1nc(-c2cc(-c3ccon3)n(Cc3ccccc3F)n2)ncc1F [Compound I-209]

Row | SMILES | Emax [%] | EC50 [nM]
49 | OCC1C[C@H]2CC[C@@H](C1)N2c1nc(-c2cc(-c3ccon3)n(Cc3ccccc3F)n2)ncc1F (stereo partly drawn) [Compound I-82] | 60 to 80 | 100 to 500
50 | O=C(O)C1CCCCC1Nc1nc(-c2cc(-c3ccon3)n(Cc3ccccc3F)n2)ncc1F (stereo not drawn) [Compound I-154] | 60 to 80 | 100 to 500
